Results from publication PMC12104861, “Structural and mechanistic basis for the regulation of the chloroplast signal recognition particle by (p)ppGpp” (Febs Letters, 2025).

T1: (cp)FtsY‐NG (Arabidopsis thaliana, UniProt O80842)
T1 construct: gene CPFTSY
T1 sequence (O80842 65-366): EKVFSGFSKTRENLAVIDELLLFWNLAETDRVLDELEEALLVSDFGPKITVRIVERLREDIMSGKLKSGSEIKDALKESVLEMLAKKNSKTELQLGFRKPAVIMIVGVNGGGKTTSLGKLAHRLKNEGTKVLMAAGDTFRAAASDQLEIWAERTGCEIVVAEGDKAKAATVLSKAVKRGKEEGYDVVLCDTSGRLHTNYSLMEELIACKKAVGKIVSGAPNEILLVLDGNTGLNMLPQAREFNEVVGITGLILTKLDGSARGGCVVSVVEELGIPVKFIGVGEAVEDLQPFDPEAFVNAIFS

T2: (cp)SRP54:FtsY‐NG complex (Arabidopsis thaliana, UniProt O80842+P37107)
T2 construct: gene FFC; GTPase heterodimer mixed from the two His-tagged proteins: SRP54 residues 79-564 and FtsY NG domain residues 65-366
T2 sequence (P37107 79-564): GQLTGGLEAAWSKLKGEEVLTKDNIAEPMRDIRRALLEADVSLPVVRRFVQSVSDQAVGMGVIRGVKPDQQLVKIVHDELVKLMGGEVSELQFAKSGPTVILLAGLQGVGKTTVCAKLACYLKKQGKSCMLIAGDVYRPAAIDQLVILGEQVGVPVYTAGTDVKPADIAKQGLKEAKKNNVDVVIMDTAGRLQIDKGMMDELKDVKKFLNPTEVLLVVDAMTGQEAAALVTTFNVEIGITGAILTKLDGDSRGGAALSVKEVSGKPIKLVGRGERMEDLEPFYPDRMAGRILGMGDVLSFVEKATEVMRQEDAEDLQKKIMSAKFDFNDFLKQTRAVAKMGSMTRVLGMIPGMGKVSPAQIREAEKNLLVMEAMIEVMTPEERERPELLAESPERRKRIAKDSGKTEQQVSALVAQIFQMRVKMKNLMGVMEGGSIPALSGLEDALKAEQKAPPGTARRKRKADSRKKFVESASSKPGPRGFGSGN
T2 sequence (O80842 65-366): T1 sequence (O80842 65-366)

T3: (cp)SRP54 (Arabidopsis thaliana, UniProt P37107)
T3 construct: gene FFC; residues 79-564 (transit peptide removed), NG and M domains, hexa-histidine tag kept, expressed in E. coli BL21(DE3) Rosetta
T3 sequence (P37107 79-564): T2 sequence (P37107 79-564)

T4: chloroplast signal recognition particle 54 kDa protein, (cp)SRP54 (Arabidopsis thaliana, UniProt P37107 79-564)
T4 construct: Arabidopsis thaliana (cp)SRP54, UniProt P37107, residues 79-564; the methods give residues 79-564; source: E. coli BL21 (DE3) Rosetta, purified (HisTrap FF, EDTA incubation, SEC Superdex 200)
T4 sequence (looked up): T2 sequence (P37107 79-564)

B1: NG domain of the chloroplast SRP receptor (cp)FtsY, (cp)FtsY-NG (domain or fragment, Arabidopsis thaliana, UniProt O80842 65-366, looked up)
chain: T1 sequence (O80842 65-366)
notes: source: E. coli BL21 (DE3) Rosetta, purified (HisTrap FF, EDTA incubation, SEC Superdex 200)

Tests used:
(cp)FtsY‐NG [1] = target: T1, (cp)FtsY‐NG; experiment: isothermal titration calorimetry; assay type: binding
Source text: isothermal titration calorimetry on (cp)FtsY‐NG

[2] = target: T2, (cp)SRP54:FtsY‐NG complex; experiment: HPLC GTP hydrolysis assay; assay type: biochemical; details: read-out: residual GTPase activity (% GTP hydrolysed) at 10 mM, 30 min
(cp)SRP54 = target: T3, (cp)SRP54; experiment: isothermal titration calorimetry; assay type: binding
Source text: isothermal titration calorimetry on (cp)SRP54

[3] = target: T2, (cp)SRP54:FtsY‐NG complex; experiment: HPLC GTP hydrolysis assay; assay type: biochemical; details: 10 μM each protein, 500 μM GTP, pH 7.5, 10 mM Mg(OAc)2, 37 °C
(cp)FtsY‐NG [4] = target: T1, (cp)FtsY‐NG; experiment: X-ray crystal structure, […] Å; details: Mg2+; canonical guanosine nucleotide-binding site; 100 mM Tris pH 8.5, 25% PEG1000
[5] = target: T2, (cp)SRP54:FtsY‐NG complex; experiment: analytical size-exclusion chromatography of complex formation; assay type: binding; details: nonhydrolysable GTP analogue promotes the heterodimer; 20 mM HEPES-K pH 7.5, 20 mM MgCl2
[6] = target: T4, chloroplast signal recognition particle …; experiment: SEC; analytical SEC, Superdex 200 Increase 10/300 GL; 100 uM of each protein in buffer C (20 mM HEPES-K pH 7.5, 200 mM NaCl, 20 mM KCl, 20 mM MgCl2) with increasing GppNHp; 30 min at room temperature; also 0.5 mM GppNHp with increasing ppGpp or pppGpp, which disrupt the complex; details: both partners purified

Molecule | Kd ((cp)FtsY‐NG [1]) [µM] | remaining activity at 10000 µM [2] [%] | Kd ((cp)SRP54) [µM] | also measured
Nc1nc2c(ncn2[C@@H]2O[C@H](COP(=O)(O)OP(=O)(O)OP(=O)(O)O)[C@@H](OP(=O)(O)OP(=O)(O)O)[C@H]2O)c(=O)[nH]1 [pppGpp] | 27.6 ± 3.64 | ~20 | 47.8 ± 3.52 | 
Nc1nc2c(ncn2[C@@H]2O[C@H](COP(=O)(O)OP(=O)(O)OP(=O)(O)O)[C@@H](O)[C@H]2O)c(=O)[nH]1 [GTP] | 11.9 ± 2.44 |  | 51.8 ± 3.54 | HPLC GTP hydrolysis assay [3]: significantly enhanced when in complex, hydrolysing nearly all available GTP
Nc1nc2c(ncn2[C@@H]2O[C@H](COP(=O)(O)OP(=O)(O)O)[C@@H](O)[C@H]2O)c(=O)[nH]1 [GDP] | 7.71 ± 0.4 |  | 23.5 ± 2.29 | 
Nc1nc2c(ncn2[C@@H]2O[C@H](COP(=O)(O)OP(=O)(O)O)[C@@H](OP(=O)(O)OP(=O)(O)O)[C@H]2O)c(=O)[nH]1 [ppGpp] | 7.36 ± 1.46 | ~20 | 32.5 ± 5.38 | X-ray crystal structure, 1.99 Å ((cp)FtsY‐NG [4]): solve the crystal structure of the truncated form of (cp)FtsY from A. thaliana
Nc1nc2c(ncn2[C@@H]2O[C@H](COP(=O)(O)OP(=O)(O)NP(=O)(O)O)[C@@H](O)[C@H]2O)c(=O)[nH]1 [GppNHp] |  |  |  | analytical size-exclusion chromatography of complex formation [5]: visualized the complex between (cp)SRP54 and (cp)FtsY‐NG at increasing concentrations of GppNHp
B1 |  |  |  | binding result [6]: binds
